According to US7700633B2, “Organic compounds” (Novartis AG, priority 2005, dated 2010):

Experiments:
human PTP-1B = target: T1, human PTP-1B (Homo sapiens, UniProt P18031); experiment: PTP-1B inhibitory activity in vitro (IC50); assay type: biochemical
T1 construct: recombinant human PTP-1B[1-298] or PTP-1B[1-322]
T1 sequence (P18031 1-298 limits assumed): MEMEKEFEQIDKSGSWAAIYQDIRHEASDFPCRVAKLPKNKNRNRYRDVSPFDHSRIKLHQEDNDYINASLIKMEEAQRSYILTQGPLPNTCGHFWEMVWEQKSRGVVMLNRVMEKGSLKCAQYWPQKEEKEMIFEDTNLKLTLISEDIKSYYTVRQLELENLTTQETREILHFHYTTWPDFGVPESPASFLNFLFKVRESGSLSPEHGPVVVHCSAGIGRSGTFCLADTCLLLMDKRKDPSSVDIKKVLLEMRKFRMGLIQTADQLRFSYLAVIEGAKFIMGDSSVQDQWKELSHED
Protocol: Assessment of human PTP-1B (hPTP-1B) activity in the presence of various agents is determined by measuring the amount of inorganic phosphate released from a phosphopeptide substrate using a 96-well microtiter plate format. The assay (100 μL) is performed in an assay buffer comprised of 50 mM TRIS (pH 7.5), 50 mM NaCl, 3 mM DTT at ambient temperature. The assay is typically performed in the presence of 0.4% dimethyl sulfoxide (DMSO). However, concentrations as high as 10% are used with certain poorly soluble compounds. […] Inorganic phosphate, a product of the enzyme reaction, is quantitiated after 15 min as the green color resulting from complexing with the Malichite reagent and is determined as an A620 using a Molecular Devices (Sunnyvale, Calif.) SpectraMAX Plus spectrophotometer. […] Activity is defined as the net change in absorbance resulting from the activity of the uninhibited hPTP-1B[1-411] minus that of a tube with acid-inactivated hPTP-1B[1-411]. […]
Alternatively, the assessment of human PTP-1B activity in the presence of various agents may be determined by measuring the hydrolysis products of known competing substrates. For example, cleavage of substrate para-nitrophenylphosphate (pNPP) results in the release of the yellow-colored para-nitrophenol (pNP) which can be monitored in real time using a spectrophotometer. […]

Compound | melting point | IC50 (human PTP-1B)
COc1cc2cc(N3CC(=O)NS3(=O)=O)c(O)cc2oc1=O [Example 70, 5-(7-Hydroxy-3-methoxy-2-oxo-2H-chromen-6-yl)-1,1-dioxo-1,2,5-thiadiazolidin-3-one] | 226 to 228 °C | –
O=C1CN(c2cc3cc(C4CCCC4)ccc3cc2O)S(=O)(=O)N1 [Example No. 22, 5-(7-Cyclopentyl-3-hydroxynaphthalen-2-yl)-1,1-dioxo-1,2,5-thiadiazolidin-3-one] | – | 85 nM
O=C1CN(c2cc3cc(C4CCCCC4)ccc3cc2O)S(=O)(=O)N1 [Example No. 23, 5-(7-Cyclohexyl-3-hydroxynaphthalen-2-yl)-1,1-dioxo-1,2,5-thiadiazolidin-3-one] | – | 113 nM
